# Tests used:
# [1] = biological target: T1, human CCR3 (Homo sapiens, UniProt P51677); test: binding of [125I]-human eotaxin to human CCR3 (SPA, membranes of RBL-2H3 cells expressing CCR3); details: [125I]-human eotaxin 50 pM, 4 hours at room temperature; read-out: IC50 (concentration of test compound at which 50% inhibition of eotaxin binding to CCR3 occurs)
# T1 construct: expressed in transfected cells; membranes
# T1 sequence (P51677 1-355): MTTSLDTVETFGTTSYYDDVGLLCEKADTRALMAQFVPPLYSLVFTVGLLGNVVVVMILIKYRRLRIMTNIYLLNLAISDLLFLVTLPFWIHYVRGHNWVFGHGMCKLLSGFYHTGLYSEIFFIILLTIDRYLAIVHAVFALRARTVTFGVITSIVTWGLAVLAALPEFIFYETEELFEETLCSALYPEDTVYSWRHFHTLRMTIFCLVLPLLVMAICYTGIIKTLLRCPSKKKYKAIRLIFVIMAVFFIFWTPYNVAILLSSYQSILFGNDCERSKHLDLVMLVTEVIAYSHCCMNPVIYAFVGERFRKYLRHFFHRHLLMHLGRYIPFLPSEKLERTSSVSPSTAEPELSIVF
# Method: In this assay the effect of the compounds of the present invention on the binding of human eotaxin to human CCR3 is determined. Recombinant cells expressing human CCR3 are captured by wheatgerm agglutinin (WGA) polyvinyltoluidene (PVT) SPA beads (available from Amersham), through a specific interaction between the WGA and carbohydrate residues of glycoproteins on the surface of the cells. [^125I]-human eotaxin (available from Amersham) binds specifically to CCR3 receptors bringing the [^125I]-human eotaxin in close proximity to the SPA beads. Emitted â-particles from the [^125I]-human eotaxin excite, by its proximity, the fluorophore in the beads and produce light.
# Preparation of Assay Buffer 5.96 g HEPES and 7.0 g sodium chloride are dissolved in distilled H2O and 1 M aq. CaCl2 (1 ml) and 1 M aq. MgCl2 (5 ml) are added. The pH is adjusted to 7.6 with NaOH and the solution made to a final volume of 1 L using distilled H2O. 5 g of bovine serum albumin and 0.1 g NaN3 are dissolved in the solution and the resulting buffer stored at 4° C. […]
# The assay is performed in a final volume of 250 μl per well of an Optiplate™ microplate (ex Canberra Packard). […] The resulting scintillations are counted using a Canberra Packard TopCount™ scintillation counter, each well being counted for 1 minute. […]
IC50 [1] [nM],melting point [°C],SMILES
~200,117 to 120,"O=C(C=C1CCN(CCc2ccc(F)cc2)CC1)NCc1ccc(F)c(F)c1 [Example 17, N-(3,4-Difluoro-benzyl)-2-{1-[2-(4-fluoro-phenyl)-ethyl]-piperidin-4-ylidene}-acetamide]"
–,83 to 85,"O=C(C=C1CCN(Cc2ccc(F)cc2)CC1)NCc1ccc(F)c(F)c1 [Example 1, N-(3,4-Difluoro-benzyl)-2-[1-(4-fluoro-benzyl)-piperidin-4-ylidene]-acetamide]"

# Source: patent publication US20100048633A1, “Piperidine-4-acrylamides” (priority 2007, published 2010)
